Source: PMC10304291, “THC-Reduced Cannabis sativa L.—How Does the Solvent Determine the Bioavailability of Cannabinoids Given Orally?” (Nutrients, 2023)

Key:
[1] = mini-pigs; oral CBD 15 mg/kg; cited from earlier work
[2] = Whole-blood pharmacokinetics of CBD and THC after single oral dose of Cannabis sativa extract; conditions: whole blood, single oral dose of extract 30 mg/kg; for concentration at 0.5 h / concentration at 1 h / concentration at 2 h / concentration at 4 h / concentration at 6 h / concentration at 24 h / AUC(0-t) / Cmax / MRT / Tmax: male, Wistar, rat, 30 mg/kg; for concentration at 0.5 h / concentration at 1 h / concentration at 2 h / concentration at 4 h / concentration at 6 h / concentration at 24 h: oral; for AUC(0-t) / Cmax / MRT / Tmax: po; for AUC(0-t): AUC0–24, whole blood
[3] = 12 healthy volunteers; chocolate cookies with 0.57 mg/kg CBD + 0.28 mg/kg THC; after 1.5–3 h; cited from earlier work
[4] = rats; 3 or 6 h after oral CBD 50 mg/kg in olive oil; cited from earlier work
[5] = Brain pharmacokinetics of CBD and THC after single oral dose of Cannabis sativa extract; conditions: for mean concentration over time / Kp / concentration at 0.5 h / concentration at 1 h / concentration at 2 h / concentration at 4 h / concentration at 6 h / AUC(0-t) / Cmax / MRT: single oral dose of extract 30 mg/kg; for mean concentration over time: Table 7; for Kp: brain / whole blood, AUCbrain:AUC whole blood (AUC0–24 ratio); for concentration at 0.5 h / concentration at 1 h / concentration at 2 h / concentration at 4 h / concentration at 6 h: oral; for AUC(0-t): AUC0–24, brain
[6] = Mean Concentration ± SD, blood, Rapae oleum
[7] = Mean Concentration, blood, Cremophor
[8] = mean concentration over time, Blood/Cremophor, Table 7
[9] = mean concentration over time, Blood/Rapae Oleum, Table 7
[10] = male, Wistar, rat, brain, po, 30 mg/kg, Cremophor
[11] = male, Wistar, rat, brain, po, 30 mg/kg, Rapae oleum

CCCCCc1cc(O)c2c(c1)OC(C)(C)[C@@H]1CCC(C)=C[C@@H]21 [THC, Δ-9-tetrahydrocannabinol]
Δ9-THC after oral CBD [1]: did not detect | concentration at 0.5 h [2, 6]: 11.9 ± 18 ng/g | concentration at 1 h [2, 6]: 11 ± 5.21 ng/g | concentration at 2 h [2, 6]: 24 ± 7.22 ng/g | concentration at 4 h [2, 6]: 26.2 ± 19.1 ng/g | concentration at 6 h [2, 6]: 10.3 ± 2.1 ng/g | concentration at 24 h [2, 6]: 0.445 ± 0.21 ng/g | concentration at 0.5 h [2, 7]: 13.1 ± 10.9 ng/g | concentration at 1 h [2, 7]: 18.5 ± 1.98 ng/g | concentration at 2 h [2, 7]: 14 ± 3.3 ng/g | concentration at 4 h [2, 7]: 8.01 ± 1.48 ng/g | concentration at 6 h [2, 7]: 9.04 ± 4.39 ng/g | concentration at 24 h [2, 7]: 3.79 ± 4.59 ng/g | concentration at 0.5 h [2, 8]: 13.1 ng/mL | concentration at 1 h [2, 8]: 18.5 ng/mL | concentration at 2 h [2, 8]: 14 ng/mL | concentration at 4 h [2, 8]: 8.01 ng/mL | concentration at 6 h [2, 8]: 9.04 ng/mL | concentration at 24 h [2, 8]: 3.79 ng/mL | concentration at 0.5 h [2, 9]: 11.9 ng/mL | concentration at 1 h [2, 9]: 11 ng/mL | concentration at 2 h [2, 9]: 24 ng/mL | concentration at 4 h [2, 9]: 26.2 ng/mL | concentration at 6 h [2, 9]: 10.3 ng/mL | concentration at 24 h [2, 9]: 0.445 ng/mL | AUC(0-t) ([2]; Cremophor): 217 ng·h/mL | AUC(0-t) ([2]; Rapae oleum): 186 ng·h/mL | Cmax ([2]; Cremophor): 18.5 ng/mL | Cmax ([2]; Rapae oleum): 26.2 ng/mL | MRT ([2]; Cremophor): 12.7 h | MRT ([2]; Rapae oleum): 5.75 h | Tmax ([2]; Cremophor): 1 h | Tmax ([2]; Rapae oleum): 4 h | CL ([2]; Cremophor): 2.18 L/h | Vd ([2]; Cremophor): 28.26 L | CL ([2]; Rapae oleum): 2.56 L/h | Vd ([2]; Rapae oleum): 15.15 L | whole-blood concentration [3]: about 5 ng/mL | Δ9-THC in the blood after oral CBD [4]: did not detect | mean concentration over time ([5]; Brain/Cremophor, 0.5 h): 18.575 | mean concentration over time ([5]; Brain/Cremophor, 1 h): 49.521 | mean concentration over time ([5]; Brain/Cremophor, 2 h): 56.85 | mean concentration over time ([5]; Brain/Cremophor, 4 h): 35.976 | mean concentration over time ([5]; Brain/Cremophor, 6 h): 35.947 | mean concentration over time ([5]; Brain/Cremophor, 24 h): 1.154 | mean concentration over time ([5]; Brain/Rapae oleum, 0.5 h): 3.719 | mean concentration over time ([5]; Brain/Rapae oleum, 1 h): 43.593 | mean concentration over time ([5]; Brain/Rapae oleum, 2 h): 75.768 | mean concentration over time ([5]; Brain/Rapae oleum, 4 h): 27.792 | mean concentration over time ([5]; Brain/Rapae oleum, 6 h): 3.7605 | mean concentration over time ([5]; Brain/Rapae oleum, 24 h): 0 | Kp ([5]; male, Wistar, rat, po, 30 mg/kg, Cremophor): 1.22 | Kp ([5]; male, Wistar, rat, po, 30 mg/kg, Rapae oleum): 3.72 | concentration at 0.5 h ([5]; male, Wistar, rat, brain, 30 mg/kg, Mean Concentration ± SD, Rapae oleum, 0.5 h): 3.72 ± 2.35 ng/g | concentration at 1 h ([5]; male, Wistar, rat, brain, 30 mg/kg, Mean Concentration ± SD, Rapae oleum, 1 h): 43.6 ± 24.8 ng/g | concentration at 2 h ([5]; male, Wistar, rat, brain, 30 mg/kg, Mean Concentration ± SD, Rapae oleum, 2 h): 75.8 ± 43.8 ng/g | concentration at 4 h ([5]; male, Wistar, rat, brain, 30 mg/kg, Mean Concentration ± SD, Rapae oleum, 4 h): 27.8 ± 15.2 ng/g | concentration at 6 h ([5]; male, Wistar, rat, brain, 30 mg/kg, Mean Concentration ± SD, Rapae oleum, 6 h): 3.76 ± 2.61 ng/g | concentration at 0.5 h ([5]; male, Wistar, rat, brain, 30 mg/kg, Mean Concentration, Cremophor, 0.5 h): 18.6 ± 11.6 ng/g | concentration at 1 h ([5]; male, Wistar, rat, brain, 30 mg/kg, Mean Concentration, Cremophor, 1 h): 49.5 ± 9.47 ng/g | concentration at 2 h ([5]; male, Wistar, rat, brain, 30 mg/kg, Mean Concentration, Cremophor, 2 h): 56.9 ± 7.39 ng/g | concentration at 4 h ([5]; male, Wistar, rat, brain, 30 mg/kg, Mean Concentration, Cremophor, 4 h): 36 ± 7.45 ng/g | concentration at 6 h ([5]; male, Wistar, rat, brain, 30 mg/kg, Mean Concentration, Cremophor, 6 h): 35.9 ± 12.7 ng/g | Tmax ([5]; male, Wistar, rat, brain, po, 30 mg/kg): 4 h | AUC(0-t) [5, 10]: 656 ng·h/mL | AUC(0-t) [5, 11]: 553 ng·h/mL | Cmax [5, 10]: 56.9 ng/g | Cmax [5, 11]: 75.8 ng/g | MRT [5, 10]: 5.11 h | MRT [5, 11]: 7.19 h
